{"source": "patent US7459434B2", "about": "“Peptide interacting with anti-apoptotic proteins of the Bcl-2 family” (Les Laboratories Servier, priority 2003, dated 2008)", "key": {"Bcl-W": {"target": "T1, Bcl-W (Homo sapiens, UniProt Q92843)", "T1 sequence (Q92843 1-193)": "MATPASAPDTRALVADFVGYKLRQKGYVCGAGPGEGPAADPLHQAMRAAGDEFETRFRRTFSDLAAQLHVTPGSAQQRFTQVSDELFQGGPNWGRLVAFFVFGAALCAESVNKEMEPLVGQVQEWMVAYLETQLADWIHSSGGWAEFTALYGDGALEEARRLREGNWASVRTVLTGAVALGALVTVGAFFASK", "test": "Fluorescence polarisation, Kd of peptide with GST-Bcl-W", "type": "binding", "conditions": "15 nM peptide labelled with fluorescein at the N-terminal end; GST-Bcl-W 1 nM to 5 μM; pH 7.4; FIG. 3; read-out: Kd obtained with Bcl-W", "experimental": "(§1) 2) Fluorescence Polarisation: Determination of the Kd of the Interaction Between the Peptide Obtained in Example 1 and the Anti-Apoptotic Protein\n(§2) A 15 nM solution of the peptide obtained in Example 1 labelled with fluorescein at the N-terminal end is mixed with a solution containing the fusion protein GST-Bcl-XL or GST-Bcl-W at a concentration varying from 1 nM to 5 μM in a buffer containing Na2HPO4 20 mM pH 7.4, EDTA 1 mM, NaCl 50 mM, pluronic acid F-68 0.05%. The fluorescence polarisation is then measured by the En Vision apparatus (Packard Perkin-Elmer)."}, "Bcl-XL": {"target": "Bcl-XL (Homo sapiens, UniProt Q07817)", "sequence (Q07817 whole entry, species assumed)": "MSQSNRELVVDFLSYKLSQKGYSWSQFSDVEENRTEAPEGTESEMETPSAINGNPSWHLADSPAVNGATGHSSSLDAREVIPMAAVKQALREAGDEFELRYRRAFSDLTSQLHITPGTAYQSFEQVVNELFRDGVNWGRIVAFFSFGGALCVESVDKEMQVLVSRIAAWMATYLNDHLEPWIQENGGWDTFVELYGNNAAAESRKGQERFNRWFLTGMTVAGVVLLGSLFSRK", "test": "Fluorescence polarisation, Kd of peptide with GST-Bcl-XL", "type": "binding", "conditions": "15 nM peptide labelled with fluorescein at the N-terminal end; GST-Bcl-XL 1 nM to 5 μM; pH 7.4; FIG. 2; read-out: Kd obtained with Bcl-XL", "experimental": "as §1, §2"}}, "note": "No end group written: not given here."}
{"sequence": "DTRRSMVFARHLREVGDEFRSR [peptide obtained in Example 1]", "values": [{"measurement": "Kd", "setting": "Bcl-W", "result": 411, "unit": "nM"}, {"measurement": "Kd", "setting": "Bcl-XL", "result": 215, "unit": "nM"}]}
